Seven molecules from patent publication US20100105652A1, “PURINES AS CYSTEINE PROTEASE INHIBITORS” (Glaxo Group Limited, priority 2007, published 2010) can be followed below.

In assay [1] the target is T1, Falcipain-2 (Plasmodium falciparum, UniProt Q8I6U4).
T1 sequence (Q8I6U4 244-484): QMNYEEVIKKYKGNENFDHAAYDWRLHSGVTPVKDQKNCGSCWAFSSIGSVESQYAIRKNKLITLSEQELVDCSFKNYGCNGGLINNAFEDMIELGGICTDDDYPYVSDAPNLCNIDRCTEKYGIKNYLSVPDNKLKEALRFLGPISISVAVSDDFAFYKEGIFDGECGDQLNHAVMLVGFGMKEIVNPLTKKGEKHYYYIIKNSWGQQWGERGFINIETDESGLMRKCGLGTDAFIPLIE
The assay is described as follows: falcipain-2 enzymatic assay (fluorogenic substrate H-D-VLR-AFC, endpoint). In kind it is biochemical. To be noted: parasitic recombinant enzyme, pH 5.5, quenched after 60 minutes.

Assay [2] concerns the target T2, Falcipain-3 (Plasmodium falciparum, UniProt Q8IIL0).
T2 sequence (Q8IIL0 243-492): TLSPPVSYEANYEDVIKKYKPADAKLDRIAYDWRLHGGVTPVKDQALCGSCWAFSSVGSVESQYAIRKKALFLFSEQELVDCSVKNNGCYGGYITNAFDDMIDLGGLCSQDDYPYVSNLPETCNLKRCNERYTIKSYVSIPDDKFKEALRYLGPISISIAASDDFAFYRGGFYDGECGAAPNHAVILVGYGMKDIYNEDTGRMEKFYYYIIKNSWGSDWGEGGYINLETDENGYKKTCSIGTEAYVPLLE
The experiment in a line: falcipain-3 enzymatic assay (fluorogenic substrate H-D-VLR-AFC, endpoint). The format is biochemical. The conditions noted are these: parasitic recombinant enzyme, pH 5.5, quenched after 60 minutes.

Assay [3] deals with Plasmodium falciparum parasite. The experiment in a line: whole cell activity against the Plasmodium falciparum parasite. The format is cell-based.

Counter-ions that a name gives are not always drawn.

For `CN(CCn1cnc2c(N(NC(=O)OC(C)(C)C)C3CCCC3)nc(C#N)nc21)C(C)(C)C` [Example 43, 1,1-dimethylethyl 2-(2-cyano-9-{2-[(1,1-dimethylethyl)(methyl)amino]ethyl}-9H-purin-6-yl)-2-cyclopentylhydrazinecarboxylate trifluoroacetate], the values for the IC50 in assay [1], in assay [2] and in assay [3] were 0.0025 to 0.015 µM, 0.015 to 0.15 µM and 0.25 to 0.4 µM, respectively.

Turning to `CN(C)CCn1cnc2c(N(NC(=O)c3ccc(CN4CCN(C)CC4)cc3)C3CCCCC3)nc(C#N)nc21` [Example 44, N′-{2-cyano-9-[2-(dimethylamino)ethyl]-9H-purin-6-yl}-N′-cyclohexyl-4-[(4-methyl-1-piperazinyl)methyl]benzohydrazide trifluoroacetate], the results for the IC50 in assay [1], in assay [2] and in assay [3] were 0.0025 to 0.015 µM, 0.015 to 0.15 µM and 0.015 to 0.15 µM, respectively.

On to `CN(C)CCn1cnc2c(N(NC(=O)c3cccc(-c4ccc(CN5CCN(C)CC5)cc4)n3)C3CCCCC3)nc(C#N)nc21` [Example 45, N′-{2-cyano-9-[2-(dimethylamino)ethyl]-9H-purin-6-yl}-N′-cyclohexyl-6-{4-[(4-methyl-1-piperazinyl)methyl]phenyl}-2-pyridinecarbohydrazide trifluoroacetate], for which the figures for the IC50 in assay [1], in assay [2] and in assay [3] were 0.0025 to 0.015 µM, 0.015 to 0.15 µM and 0.015 to 0.15 µM, respectively.

In the case of `CN(C)CCCn1cnc2c(N(NC(=O)c3cccc(-c4ccc(CN5CCN(C)CC5)cc4)n3)C3CCCCC3)nc(C#N)nc21` [Example 46, N′-{2-cyano-9-[3-(dimethylamino)propyl]-9H-purin-6-yl}-N′-cyclo hexyl-6-{4-[(4-methyl-1-piperazinyl)methyl]phenyl}-2-pyridinecarbohydrazide trifluoroacetate], the concentration for half-maximal inhibition (IC50) (usually the concentration that gives 50% inhibition) fell in the range of 0.0025 to 0.015 µM in assay [1], 0.015 to 0.15 µM in assay [2] and 0.015 to 0.15 µM in assay [3].

As for `CN1CCN(Cc2ccc(C(=O)NN(c3nc(C#N)nc4c3ncn4C)C3CCCC3)cc2)CC1` [Example 47, N′-(2-cyano-9-methyl-9H-purin-6-yl)-N′-cyclopentyl-4-[(4-methyl-1-piperazinyl)methyl]benzohydrazide trifluoroacetate], the half-inhibitory concentration (IC50) in assay [1] was in the range of 0.0025 to 0.015 µM; in assay [2], 0.25 to 0.4 µM; in assay [3], 0.15 to 0.25 µM.

`CN(C)C1CCN(C(=O)n2cnc3c(N(NC(=O)OC(C)(C)C)C4CCCC4)nc(C#N)nc32)CC1` [Example 48, 1,1-dimethylethyl 2-(2-cyano-9-{[4-(dimethylamino)-1-piperidinyl]carbonyl}-9H-purin-6-yl)-2-cyclopentylhydrazinecarboxylate trifluoroacetate]: the IC50 in assay [1] was 0.001 to 0.0025 µM; in assay [2] it was 0.015 to 0.15 µM; in assay [3], 0.15 to 0.25 µM.

In the case of `CN(C)CCCCNC(=O)n1cnc2c(N(NC(=O)OC(C)(C)C)C3CCCC3)nc(C#N)nc21` [Example 49, 1,1-dimethylethyl 2-[2-cyano-9-({[4-(dimethylamino)butyl]amino}carbonyl)-9H-purin-6-yl]-2-cyclopentylhydrazinecarboxylate trifluoroacetate], the values for the concentration for half-maximal inhibition (IC50) in assay [1], in assay [2] and in assay [3] were 0.0025 to 0.015 µM, 0.015 to 0.15 µM and greater than 1 µM, respectively.
